Measurements from ChEMBL document CHEMBL4673381, “Novel Hexahydro-1H-Pyrazino[1,2-a]pyrazine Compounds for Treating Autoimmune Diseases” (ACS Med Chem Lett, 2021).

Biological target: T1, Toll-like receptor 9 (Homo sapiens, UniProt Q9NR96)
T1 sequence (Q9NR96 whole entry): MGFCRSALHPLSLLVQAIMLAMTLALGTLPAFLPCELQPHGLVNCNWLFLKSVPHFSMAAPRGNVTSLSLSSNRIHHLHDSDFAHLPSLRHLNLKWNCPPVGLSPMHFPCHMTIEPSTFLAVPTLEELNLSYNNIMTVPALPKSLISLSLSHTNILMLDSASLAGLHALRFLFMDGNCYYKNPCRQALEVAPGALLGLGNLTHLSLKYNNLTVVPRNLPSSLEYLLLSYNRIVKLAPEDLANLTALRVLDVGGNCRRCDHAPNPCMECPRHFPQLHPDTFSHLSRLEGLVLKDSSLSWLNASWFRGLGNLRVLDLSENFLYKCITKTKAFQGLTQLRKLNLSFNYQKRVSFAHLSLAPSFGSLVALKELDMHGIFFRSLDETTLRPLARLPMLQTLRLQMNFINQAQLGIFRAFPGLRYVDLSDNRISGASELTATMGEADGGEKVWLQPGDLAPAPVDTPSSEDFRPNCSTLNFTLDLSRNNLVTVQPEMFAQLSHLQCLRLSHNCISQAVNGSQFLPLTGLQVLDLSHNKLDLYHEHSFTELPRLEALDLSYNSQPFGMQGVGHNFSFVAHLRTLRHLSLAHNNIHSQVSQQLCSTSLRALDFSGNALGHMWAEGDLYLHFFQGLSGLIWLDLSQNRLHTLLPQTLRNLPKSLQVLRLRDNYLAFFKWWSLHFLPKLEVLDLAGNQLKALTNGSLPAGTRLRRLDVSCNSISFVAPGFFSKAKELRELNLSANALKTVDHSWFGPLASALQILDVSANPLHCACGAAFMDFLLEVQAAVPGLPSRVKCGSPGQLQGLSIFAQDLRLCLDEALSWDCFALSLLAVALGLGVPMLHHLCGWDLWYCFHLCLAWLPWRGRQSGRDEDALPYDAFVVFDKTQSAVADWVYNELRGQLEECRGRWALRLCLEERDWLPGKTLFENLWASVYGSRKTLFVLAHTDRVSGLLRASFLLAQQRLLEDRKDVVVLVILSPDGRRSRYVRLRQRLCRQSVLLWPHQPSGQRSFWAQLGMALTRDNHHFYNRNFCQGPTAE
Test: Inhibition of human TLR9 expressed in HEK-Blue cells assessed as inhibition of ODN2006-induced NF-kappaB and AP-1 activation measured after 20 hrs by quanti-blue based SEAP reporter gene assay
Assay type: cell-based, HEK-Blue hTLR9

[2H]c1ccc2c(N3CC4CN(c5ncc(N6CCOC[C@H](N)C6)cc5C)CCN4[C@@H](C)C3)ccc(C#N)c2n1 (some centres not stated)
IC50: 70 nM

C[C@@H]1CN(c2ccc(C#N)c3ncccc23)C[C@@H]2CN(c3cccc4c3CCNC4)CCN21
IC50: 54 nM
